Data from PubChem BioAssay (NCI).
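Grown in 96-well plates, cells were treated for 48 hours with each compound at five concentrations. Insufficient inhibition: endpoint recorded as highest concentration tested. At the TGI there is no net growth.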

Assays:
Assay in all cases: NCI anticancer screen, dose series, 48 h
[1] = tested on: 786-0 renal
[2] = tested on: A498 renal
[3] = tested on: A549 NSCLC
[4] = tested on: ACHN renal
[5] = tested on: BT-549 breast
[6] = tested on: CAKI-1 renal
[7] = tested on: CCRF-CEM leukemia
[8] = tested on: COLO 205 colon
[9] = tested on: DU-145 prostate
[10] = tested on: EKVX NSCLC
[11] = tested on: HCC-2998 colon
[12] = tested on: HCT-116 colon
[13] = tested on: HL-60(TB) leukemia
[14] = tested on: HOP-62 NSCLC
[15] = tested on: HOP-92 NSCLC
[16] = tested on: HS 578T breast
[17] = tested on: HT29 colon
[18] = tested on: IGROV1 ovarian
[19] = tested on: K-562 leukemia
[20] = tested on: KM12 colon
[21] = tested on: M14 melanoma
[22] = tested on: MALME-3M melanoma
[23] = tested on: MCF7 breast
[24] = tested on: MDA-MB-231 breast
[25] = tested on: MDA-MB-435
[26] = tested on: MDA-N
[27] = tested on: MOLT-4 leukemia
[28] = tested on: NCI-H226 lung
[29] = tested on: NCI-H23 lung
[30] = tested on: NCI-H460 lung
[31] = tested on: NCI-H522 lung
[32] = tested on: OVCAR-3 ovarian
[33] = tested on: OVCAR-4 ovarian
[34] = tested on: OVCAR-5 ovarian
[35] = tested on: OVCAR-8 ovarian
[36] = tested on: PC-3 prostate
[37] = tested on: RXF 393 renal
[38] = tested on: SF-268 CNS
[39] = tested on: SF-295 CNS
[40] = tested on: SF-539 CNS
[41] = tested on: SK-MEL-28 melanoma
[42] = tested on: SK-MEL-5 melanoma
[43] = tested on: SK-OV-3 ovarian
[44] = tested on: SN12C renal
[45] = tested on: SNB-19 CNS
[46] = tested on: SNB-75 CNS
[47] = tested on: SR leukemia
[48] = tested on: SW-620 colon
[49] = tested on: T-47D breast
[50] = tested on: TK-10 renal
[51] = tested on: U251 CNS
[52] = tested on: UACC-257 melanoma
[53] = tested on: UACC-62 melanoma
[54] = tested on: UO-31 renal
[55] = tested on: HCT-15 colon
[56] = tested on: NCI/ADR-RES ovarian
[57] = tested on: RPMI-8226 leukemia
[58] = tested on: SK-MEL-2 melanoma
[59] = tested on: LOX IMVI melanoma

Measured: TGI

C[C@]12Cc3cnn(-c4ccc(F)cc4)c3NC1CC[C@@H]1C2CC[C@@]2(C)C1CC[C@@H]2O (stereo partly drawn)
28 µM: [28]
34 µM: [50]
11.9 µM: [1]
13.3 µM: [46]
26.1 µM: [14]
24.7 µM: [15]
27.2 µM: [41]
20.8 µM: [25]
18.7 µM: [29]
21.8 µM: [26]
23 µM: [2]
23.1 µM: [21]
37.9 µM: [38]
30.5 µM: [34]
16.3 µM: [27]
13.6 µM: [48]
25.4 µM: [10] | [31]
10.3 µM: [8]
46.3 µM: [32]
27.9 µM: [35]
56.1 µM: [45]
15 µM: [42]
46.9 µM: [24]
26.5 µM: [16]
67.9 µM: [43]
36.7 µM: [23]
32.6 µM: [7]
18.3 µM: [11] | [20]
13.4 µM: [5]
49.4 µM: [6]
16.6 µM: [12] | [30]
24 µM: [19]
3.81 µM: [17]
8.56 µM: [40]
28.5 µM: [18]
21.9 µM: [36]
23.7 µM: [22]
4.38 µM: [39]
29.4 µM: [4]
27.5 µM: [33]
23.3 µM: [53]
30.7 µM: [3]
22.5 µM: [54]
19.2 µM: [52]
12.8 µM: [47]
5.09 µM: [37]
27.8 µM: [9]
30.4 µM: [44]
11.8 µM: [13]
17 µM: [49]
21.7 µM: [51]

CCOc1ccc(NC(=O)/C(=N\NC(C)(C)C)C2C(=O)Nc3ccccc3S2=O)cc1 (stereo not drawn)
not listed: [6] | [24] | [59]
> 100 µM: all other assays above

CCCCSC1=N/C(=C\c2ccc(N(C)C)cc2)C(NN)=N1
not listed: [8] | [28] | [40] | [42] | [47] | [54]
> 100 µM: all other assays above

CCOC(=O)c1nc2ccccc2nc1Nc1ccc(OC)c(OC)c1
77 µM: [46]
not listed: [2] | [28] | [35] | [36] | [37] | [48] | [50] | [52] | [59]
> 100 µM: all other assays above
